The source of these data is US6552082B2, “Solution of N-[o-(p-pivaloyloxybenzenesulfonylamino)benzoyl] glycine monosodium salt tetra-hydrate and drug product thereof” (Ono Pharmaceutical Co., Ltd., priority 2000, dated 2003).

Series [1] is described as follows: amount of sodium hydroxide and stability in water/ethanol solution. Type of series: physicochemical. Conditions: pH over 8.5. As to the method:
To the mixture added water in order to fill up to 5 mL of total solution.

Series [2] can be described thus: change of pH in the time course on freeze-dried product comprising sodium carbonate. In kind it is physicochemical. The procedure: (a) when the aqueous solution was prepared,
(b) when the prepared aqueous solution was filled in each vial (5 mL), freeze-dried and then dissolved in water (10 mL),
(c) when the prepared aqueous solution was filled in each vial (5 mL), freeze-dried and the formulation obtained was left at 60 degrees Centigrade for two weeks and dissolved in water (10 mL).

The nature of series [3]: investigation of pH adjusters: amount added, pH and clearness of suspension. In kind it is physicochemical. As to the method: The present inventors have investigated the amounts of di-sodium hydrogen phosphate, tri-sodium phosphate, potassium hydroxide and sodium hydroxide to add and the changes in pH thereby.
Di-sodium hydrogen phosphate dodecahydrate (80 g) was added to water (200 mL) and dissolved by heating. To the above suspension under stirring with a stirrer was added the aqueous solution of Di-sodium hydrogen phosphate dodecahydrate by 5 mL each and the pH was measured.
To the suspension under stirring with a stirrer was added an aqueous solution of […] (4 g/100 mL) by 5 mL portion each and the pH was measured.
To the suspension under stirring with a stirrer was added 1N aqueous solution of potassium hydroxide (0.5 mL portion each) and the pH of the solution was measured.
To the suspension under stirring with a stirrer was added 1N aqueous solution of sodium hydroxide (1 mL portion each) and the pH was measured.

A short description of series [4]: solubility of the compound (I) in normal solvents. Type of series: physicochemical.
Series [5] is described as follows: admixing with amino acid infusion as replacement of pH adjusters. In kind it is physicochemical. Conditions: compound (I) 5 mg/mL admixed with KYORYOKU MORIAMINE infusion.
In a further series the target is T1, elastase (Homo sapiens, UniProt P08246).
T1 sequence (P08246 30-267): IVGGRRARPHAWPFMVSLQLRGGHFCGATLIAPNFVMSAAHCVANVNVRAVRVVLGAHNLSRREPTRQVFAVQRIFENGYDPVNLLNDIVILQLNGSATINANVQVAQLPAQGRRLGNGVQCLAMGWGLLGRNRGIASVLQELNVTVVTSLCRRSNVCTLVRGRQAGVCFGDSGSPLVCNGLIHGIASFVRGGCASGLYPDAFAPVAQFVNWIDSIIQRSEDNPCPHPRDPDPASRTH
Particulars: background statement; cited from earlier work.

Series [6] is described as follows: stability of the drug products (pH and residual rate of freeze-dried products). In kind it is physicochemical. As to the method: (i) an aqueous solution of tri-sodium phosphate dodecahydrate (36.4 mg/mL; 50 mL),
(ii) an aqueous solution of potassium hydroxide (56 mg/mL 6 mL),
(iii) an aqueous solution of sodium hydroxide (40 mg/mL; 5.6 mL)
(a) when the aqueous solutions were prepared,
(b) when the prepared aqueous solutions were filled in each vial (5 mL), freeze-dried and then dissolved in water (10 mL),
(c) when the prepared aqueous solution was filled in each vial (5 mL), freeze-dried and the drug product was left at 60 degrees Centigrade for two weeks (in case of sodium hydroxide for one month) and dissolved in water (10 mL).

A short description of series [7]: investigation of a solution of high concentration. In kind it is physicochemical. Conditions: 400 mg compound (I), 100 mg mannitol, 24 mg sodium hydroxide, water to 5 mL. The procedure:
To the mixture under stirring, was added IN aqueous solution of sodium hydroxide (0.6 mL: corresponds to 24 mg). Thereto was added water in order to fill up to 5 mL of total amount. […] Therefore it was impossible to freeze-dry the suspension.

Where [8] appears, read: formulation with sodium carbonate.

Bounds are passed on as bounds.

As a reminder, the solubility is how much of the substance goes into solution per volume. Regarding `CC(C)(C)C(=O)Oc1ccc(S(=O)(=O)Nc2ccccc2C(=O)NCC(=O)[O-])cc1.[Na+]` [compound (I), N-[o-(p-pivaloyloxybenzenesulfonylamino)benzoyl]glycine monosodium salt tetra-hydrate], the “residual rate of the compound (I)” value in series [1] is on record as “over 98%”; in series [2] (freeze-dried product with sodium carbonate, 60 degrees Centigrade, two weeks), 91.4%; in series [6] (freeze-dried product with sodium hydroxide, 60 degrees Centigrade, 1 month), 98.3%. The “pH (a) when the aqueous solution was prepared” value in series [2] (formulation of JP kokai hei 5-194366 with sodium chloride and sodium carbonate) is recorded as 7.80. For the same molecule, in series [2] (setting [8]), the “pH (b) freeze-dried and then dissolved in water (10 mL)” value was found to be 8.11. Also, in series [2] (setting [8]), the “pH (c) freeze-dried, left at 60 degrees Centigrade for two weeks, dissolved in water (10 mL)” value turned out to be 8.44. In addition, the “pH when the suspension turned into a clear aqueous solution” value was 7.20 in series [3] (5 mL of 1N potassium hydroxide added), 7.44 in series [3] (7 mL of 1N sodium hydroxide added) and 7.19 in series [3] (45 mL of tri-sodium phosphate dodecahydrate solution added). Also, the “condition of the suspension (clear solution or not)” value in series [3] (di-sodium hydrogen phosphate dodecahydrate solution 200 mL (80 g), pH 8.18) is recorded as “did not turn into a clear aqueous solution”. The solubility is less than 6 mg/mL in series [4] (ethanol, organic solvent or mixture, read-out: solubility in ethanol); less than 0.4 mg/mL in series [4] (water, read-out: solubility in water); roughly 20 mg/mL in series [6] (aqueous buffer, solvent exclusively water, with pH adjuster, read-out: solubility of the above solution (water with pH adjuster)). In addition, in series [5], the pH after preparation is recorded as 6.36. Also, in series [5], the “pH after twenty-four hours” value stood at 6.13. For the same molecule, the “residual rate of the compound (I) after twenty-four hours” value in series [5] was found to be 54.1%. Further, the “inhibitory activity against elastase” value on elastase was “has an inhibitory activity against elastase”. For the same molecule, the “condition of the mixture (clear solution or not)” value is “clear solution” in series [7] (ethanol 1.0 mL) and “did not turn into a clear solution but a white suspension” in series [7] (no ethanol).
